Measurements published in patent US11873288B2, “Inhibitors for soluble epoxide hydrolase (sEH) and fatty acid amide hydrolase (FAAH)” (The Regents of the University of California, priority 2016, dated 2024).

Key:
hFAAH [1] = target: T1, hFAAH (Homo sapiens, UniProt O00519); test: hFAAH inhibition kinetics (KD, k2); type: biochemical
T1 construct: made in house
T1 sequence (O00519 1-579): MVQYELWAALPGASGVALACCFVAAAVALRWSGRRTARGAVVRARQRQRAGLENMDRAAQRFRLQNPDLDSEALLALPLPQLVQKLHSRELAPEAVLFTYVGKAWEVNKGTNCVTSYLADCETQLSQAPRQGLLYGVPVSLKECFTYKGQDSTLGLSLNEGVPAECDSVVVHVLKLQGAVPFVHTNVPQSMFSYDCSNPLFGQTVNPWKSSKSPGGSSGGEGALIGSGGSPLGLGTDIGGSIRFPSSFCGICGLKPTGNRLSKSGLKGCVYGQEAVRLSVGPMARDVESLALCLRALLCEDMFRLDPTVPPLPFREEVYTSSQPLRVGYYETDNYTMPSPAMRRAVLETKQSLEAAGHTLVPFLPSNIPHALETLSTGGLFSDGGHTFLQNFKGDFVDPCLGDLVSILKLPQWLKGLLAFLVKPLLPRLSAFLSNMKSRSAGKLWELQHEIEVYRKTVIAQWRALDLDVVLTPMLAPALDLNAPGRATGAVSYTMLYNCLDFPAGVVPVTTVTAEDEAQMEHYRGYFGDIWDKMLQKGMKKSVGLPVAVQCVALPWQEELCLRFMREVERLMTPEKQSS

hFAAH [2] = target: T1, hFAAH; test: recombinant FAAH enzyme with fluorescent substrate OMP (hFAAH IC50, screen); type: biochemical
hsEH = target: T2, hsEH (Homo sapiens, UniProt P34913); test: human sEH inhibition (hsEH IC50); type: biochemical
T2 sequence (P34913 1-555): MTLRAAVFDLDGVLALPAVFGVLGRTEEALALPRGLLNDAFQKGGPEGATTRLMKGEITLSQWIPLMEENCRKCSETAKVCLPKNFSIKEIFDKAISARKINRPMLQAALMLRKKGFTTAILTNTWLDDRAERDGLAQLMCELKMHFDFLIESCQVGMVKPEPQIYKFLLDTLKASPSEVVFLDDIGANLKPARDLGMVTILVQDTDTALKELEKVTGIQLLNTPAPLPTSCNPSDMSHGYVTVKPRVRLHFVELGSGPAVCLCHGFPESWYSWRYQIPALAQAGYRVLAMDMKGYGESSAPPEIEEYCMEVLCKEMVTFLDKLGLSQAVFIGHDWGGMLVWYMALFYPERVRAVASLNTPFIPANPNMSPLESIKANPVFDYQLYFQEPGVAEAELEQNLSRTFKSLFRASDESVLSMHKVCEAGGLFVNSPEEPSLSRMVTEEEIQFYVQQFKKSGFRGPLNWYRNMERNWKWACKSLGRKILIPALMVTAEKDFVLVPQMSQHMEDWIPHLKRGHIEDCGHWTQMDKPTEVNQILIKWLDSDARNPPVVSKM

MAGL = target: T3, MAGL (Homo sapiens, UniProt Q99685); test: serine hydrolase selectivity panel: MAGL
T3 sequence (Q99685 1-303): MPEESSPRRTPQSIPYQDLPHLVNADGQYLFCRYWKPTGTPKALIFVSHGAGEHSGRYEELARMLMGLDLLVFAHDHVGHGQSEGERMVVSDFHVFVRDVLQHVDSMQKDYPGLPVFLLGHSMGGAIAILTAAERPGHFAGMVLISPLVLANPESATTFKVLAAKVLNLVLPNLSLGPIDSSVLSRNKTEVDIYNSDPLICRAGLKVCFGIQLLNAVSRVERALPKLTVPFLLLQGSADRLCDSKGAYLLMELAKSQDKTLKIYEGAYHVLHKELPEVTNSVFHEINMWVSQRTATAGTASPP

FAAH = target: T4, FAAH (Felis catus, UniProt A0ABI8A862); conditions: read-out: FAAH IC50, Cat; brain microsome preparations
T4 sequence (A0ABI8A862 1-541): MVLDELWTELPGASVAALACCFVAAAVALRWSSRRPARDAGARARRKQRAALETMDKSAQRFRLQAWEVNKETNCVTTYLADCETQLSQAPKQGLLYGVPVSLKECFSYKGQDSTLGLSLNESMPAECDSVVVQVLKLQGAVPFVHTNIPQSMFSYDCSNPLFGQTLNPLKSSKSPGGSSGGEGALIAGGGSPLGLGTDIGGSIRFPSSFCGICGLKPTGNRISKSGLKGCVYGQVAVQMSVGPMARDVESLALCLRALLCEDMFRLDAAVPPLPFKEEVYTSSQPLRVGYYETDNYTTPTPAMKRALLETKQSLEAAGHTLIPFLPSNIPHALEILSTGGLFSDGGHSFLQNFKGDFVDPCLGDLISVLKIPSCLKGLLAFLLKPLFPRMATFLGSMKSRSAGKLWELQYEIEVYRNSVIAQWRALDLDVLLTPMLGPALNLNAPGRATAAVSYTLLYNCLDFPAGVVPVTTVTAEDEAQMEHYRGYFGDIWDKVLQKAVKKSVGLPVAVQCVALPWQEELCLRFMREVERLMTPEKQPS

sEH = target: T5, sEH (Rattus norvegicus, UniProt P80299); test: biochemical
T5 sequence (P80299 1-554): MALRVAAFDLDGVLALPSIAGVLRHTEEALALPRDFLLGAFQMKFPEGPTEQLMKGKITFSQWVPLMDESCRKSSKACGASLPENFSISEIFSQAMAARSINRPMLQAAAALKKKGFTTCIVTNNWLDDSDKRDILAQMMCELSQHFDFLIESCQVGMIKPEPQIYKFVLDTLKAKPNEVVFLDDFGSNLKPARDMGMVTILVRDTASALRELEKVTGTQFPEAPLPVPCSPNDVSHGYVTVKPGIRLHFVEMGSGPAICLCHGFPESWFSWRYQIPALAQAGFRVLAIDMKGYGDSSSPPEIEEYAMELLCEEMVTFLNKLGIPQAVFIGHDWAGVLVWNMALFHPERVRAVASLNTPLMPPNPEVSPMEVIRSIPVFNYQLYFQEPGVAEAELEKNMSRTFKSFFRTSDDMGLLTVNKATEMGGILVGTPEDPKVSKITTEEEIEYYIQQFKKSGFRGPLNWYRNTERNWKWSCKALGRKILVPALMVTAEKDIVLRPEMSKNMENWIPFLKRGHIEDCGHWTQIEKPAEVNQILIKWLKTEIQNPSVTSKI

IC50 (MAGL) [nM] | SMILES | Kd (hFAAH [1]) [nM] | hFAAH k2 (hFAAH [1]) [min⁻¹] | IC50 (hsEH) [nM] | IC50 (hFAAH [2]) [nM] | IC50 (FAAH) [nM] | further results
– | COc1ccc(NC(=O)N2CCC(Cc3cccc(Oc4ccc(C(F)(F)F)cn4)c3)CC2)cc1 [Compound B-9, N-(4-methoxyphenyl)-4-(3-((5-(trifluoromethyl)pyridin-2-yl)oxy)benzyl) piperidine-1-carboxamide] | 0.7 ± 0.27 | 0.26 ± 0.03 | – | – | – | increase in potency towards FAAH (hFAAH [2]; relative to B-5): 32 fold
– | COc1ccc(NC(=O)N2CCC(c3nc(-c4ccccc4)cs3)CC2)cc1 [Compound B-10, N-(4-methoxyphenyl)-4-(4-phenylthiazol-2-yl)piperidine-1-carboxamide] | 750 ± 20 | 0.55 ± 0.02 | 570 ± 170 | 250 | – | –
– | COc1ccc(NC(=O)N2CCC(Cc3ccc4ccccc4c3)CC2)cc1 [Compound B-8, N-(4-methoxyphenyl)-4-(naphthalen-2-ylmethyl)piperidine-1-carboxamide] | 18 ± 4 | 0.26 ± 0.03 | 120 ± 30 | 7.4 | – | –
– | COc1ccc(NC(=O)N2CCC(Cc3ccc4ccccc4n3)CC2)cc1 [Compound B-7, N-(4-methoxyphenyl)-4-(quinolin-2-ylmethyl)piperidine-1-carboxamide] | 100 ± 40 | 0.28 ± 0.04 | – | – | – | –
> 10000 | O=C(Nc1ccc(OC(F)(F)F)cc1)N[C@H]1CC[C@H](Oc2ccc(O)cc2)CC1 [Compound A-21, trans-1-(−4-(4-hydroxy-phenoxy)cyclohexyl)-3-(4-(trifluoromethoxy)phenyl)urea] | – | – | – | – | 130 | –
– | COc1ccc(NC(=O)N2CCC(Cc3cnc4ccccc4c3)CC2)cc1 [Compound B-5, N-(4-methoxyphenyl)-4-(quinolin-3-ylmethyl)piperidine-1-carboxamide] | 24 ± 4 | 0.37 ± 0.03 | 130 ± 40 | 32 | – | increase of activity/potency towards sEH (hsEH): 4 fold
> 10000 | O=C(Nc1ccc(OC(F)(F)F)cc1)N[C@H]1CC[C@H](Oc2ccc(C(=O)OCc3ccccc3)cc2)CC1 [Compound A-14, benzyl 4-((trans-4-(3-(4-(trifluoromethoxy)phenyl)ureido)cyclohexyl)oxy) benzoate] | – | – | – | – | > 1000 | –
– | O=C(Nc1cccnc1)N1CCC(Cc2cccc(Oc3ccc(C(F)(F)F)cn3)c2)CC1 [PF-3845] | – | – | – | 0.4 | < 0.1 | –
– | O=C(Nc1ccc(C(F)(F)F)cc1F)N1CCC(Cc2cccc(Oc3ccc(C(F)(F)F)cn3)c2)CC1 [Compound B-18, N-(2-fluoro-4-(trifluoromethyl)phenyl)-4-(3-((5-(trifluoromethyl)pyridin-2-yl)oxy)benzyl)piperidine-1-carboxamide] | – | – | 9 | 3 | – | –

SMILES | IC50 (MAGL) [nM] | Kd (hFAAH [1]) [nM] | hFAAH k2 (hFAAH [1]) [min⁻¹] | IC50 (hsEH) [nM] | IC50 (hFAAH [2]) [nM] | IC50 (FAAH) [nM] | further results
O=C(Nc1ccc(OC(F)(F)F)cc1)N[C@H]1CC[C@H](Oc2ccc(C(=O)O)cc2)CC1 [t-TUCB, trans-4-{4-[3-(4-trifluoromethoxyphenyl)-ureido]cyclohexyloxy}benzoic acid] | > 10000 | – | – | – | – | > 1000 | IC50 (sEH): 54 nM
